Experimental data as given in patent US20240300972A1, “THIOPHENE-BASED LIPIDS” (Oregon State University, priority 2021, published 2024).

Key:
[1] = system: HeLa (human cervical epithelial cells); test: In vitro transfection efficiency of FLuc mRNA LNPs, ONE-Glo Luciferase Assay; type: cell-based; settings: for dose response of transfection efficiency: 50 vs 200 ng/well; for transfection profile and cytotoxicity: compared to negative control (PBS) and positive control (MC3 LNPs at the same dose)
Protocol: (§1) Mammalian cell lines used to measure cytotoxicity and transfection efficiency include HeLa (human cervical epithelial cells), HEK293T/17 (human embryonic kidney cells), HepG2 (human liver epithelial-like cells), and Jurkat E6-1 (human T-lymphocytes). The cells were seeded at 4000 cells/well in a 96-well plate and incubated for 24 hours. The next day, the LNPs of interest were diluted with 1×PBS to 50 ng/ul and administered at predetermined doses to the cells. The cell viability and transfection efficiency were evaluated on the following day (after 24-hour incubation of cells with LNPs). The cell viability was measured with Promega CellTiter-Fluor Cell Viability Assay, and the transfection efficiency was measured with Promega ONE-Glo Luciferase Assay System using Tecan Infinite M200 PRO multimode plate reader instrument. The dose range varied from 50 to 200 ng of nucleic acid per well.

BALB/c mice = test: In vivo bioluminescence imaging after administration of Fluc mRNA nanoparticle formulations; set-up: species or system mouse; settings: for transfection after intramuscular administration: flanks of mice; for luminescent signals detected by in vivo imaging / pattern / origin of luminescence (transfected tissues) / degree of transfection (light flux) in the tested series: intravenous administration; for luminescent signals detected by in vivo imaging / degree of transfection (light flux) in the tested series: mice; for pattern / origin of luminescence (transfected tissues): in vivo and ex vivo organs; for light flux compared to the negative control: normal (50:10:38.5:1.5) and highly PEGylated (50:7:38.5:4.5) formulations
Protocol: A nanoparticle formulation including firefly luciferase (Fluc) mRNA was administered to BALB/c mice by intravenous, intramuscular, intravitreal, or subretinal injection. The intravenous injection was performed by tail-vein or retro-orbital injection. Mice that received a dose of nanoparticle formulation were housed until bioluminescence imaging. Bioluminescence imaging is a method to quantify luminescent signals from the subject. Prior to bioluminescence imaging, the mice were sedated with inhalation of isoflurane. The sedated mice received a dose of D-luciferin salt, which is a substrate of firefly luciferase, by intraperitoneal injection at 150 mg/kg 10 minutes prior to bioluminescence imaging. Bioluminescence imaging was performed on the mice with various exposure times ranging from 1 to 300 seconds using IVIS Lumina XRMS from PerkinElmer. To evaluate the protein expression at an organ level, internal organs of a mouse, such as the liver, lungs, kidneys, spleen, lymph nodes, and heart, and external tissues of mouse, such as muscle tissues close to a site of injection, were excised.

[2] = system: HEK293T/17 (human embryonic kidney cells); test: In vitro transfection efficiency of FLuc mRNA LNPs, ONE-Glo Luciferase Assay; type: cell-based; settings: HEK293T/17, 200 ng (identical dose)
Protocol: as §1

[3] = system: HepG2 (human liver epithelial-like cells); test: as above; type: cell-based; settings: HepG2, 200 ng (identical dose)
Protocol: as §1

Compound | dose response of transfection efficiency ([1]; HeLa) | transfection after intramuscular administration (BALB/c mice) | luminescent signals detected by in vivo imaging (BALB/c mice) | pattern / origin of luminescence (transfected tissues) (BALB/c mice) | light flux compared to the negative control (BALB/c mice; subretinal administration) | decline compared to the positive control [2] [fold] | improvement compared to the positive control ([1]; HeLa cell line, 200 ng treatment) [fold] | transfection profile and cytotoxicity ([1]; HeLa) | decline compared to the positive control [3] [fold] | luciferase signal (BALB/c mice; subretinal administration, “normal” formulation (1.5% PEG)) | degree of transfection (light flux) in the tested series (BALB/c mice) | decrease in transfection efficiency vs positive control ([1]; HeLa, MC3 LNPs at the same dose)
6-(3-(dimethylamino)propanoyl)-2-((9Z,12Z)-octadeca-9,12-dienamido)-N-((9Z,12Z)-octadeca-9,12-dienoyl)-N-octadecyl-4,5,6,7-tetrahydrothieno[2,3-c]pyridine-3- [26a] | greater at 200 ng/well than at 50 ng/well | successful and comparable transfection of local tissues | successful transfection | local transfection | greater significant light flux |  |  |  |  |  |  | 
CCCCC/C=C\C/C=C\CCCCCCCC(=O)N(C(=O)CCCCCCC/C=C\C/C=C\CCCCC)c1sc2c(c1C(=O)OCC)CCN(C(=O)CCCN(C)C)C2 [19da, ethyl 6-(4-(dimethylamino)butanoyl)-2-((9Z,12Z)—N-((9Z,12Z)-octadeca-9,12-dienoyl)octadeca-9,12-dienamido)-4,5,6,7-tetrahydrothieno[2,3-c]pyridine-3-carboxylate] | greater at 200 ng/well than at 50 ng/well | successful and comparable transfection of local tissues | successful transfection | local transfection | greater significant light flux | 3 | ~5 | favorable transfection profile and cytotoxicity | 3 |  |  | 
CCCCC/C=C\C/C=C\CCCCCCCC(=O)Nc1sc2c(c1C(=O)N(CCCCCCCCCCCCCCCCCC)C(=O)CCCCCCC/C=C\C/C=C\CCCCC)CCN(C(=O)CCCN(C)C)C2 [26b, 6-(4-(dimethylamino)butanoyl)-2-((9Z,12Z)-octadeca-9,12-dienamido)-N-((9Z,12Z)-octadeca-9,12-dienoyl)-N-octadecyl-4,5,6,7-tetrahydrothieno[2,3-c]pyridine-3-carboxamide] | greater at 200 ng/well than at 50 ng/well |  | successful transfection | local transfection | greater significant light flux |  |  | favorable transfection profile and cytotoxicity |  | not detected |  | 
CCCCC/C=C\C/C=C\CCCCCCCC(=O)Nc1sc2c(c1C(=O)NCCCN(C)C)CCN(C(=O)CCCCCCC/C=C\C/C=C\CCCCC)C2 [29d, N-(3-(dimethylamino)propyl)-2-((9Z,12Z)-octadeca-9,12-dienamido)-6-((9Z,12Z)-octadeca-9,12-dienoyl)-4,5,6,7-tetrahydrothieno[2,3-c]pyridine-3-carboxamide] | inverse dose response |  | successful transfection | spleen and lungs |  |  |  | favorable transfection profile and cytotoxicity |  |  |  | 
CCCCC/C=C\C/C=C\CCCCCCCCOC(=O)c1c(NC(=O)CCCCCCCCCCCCCCCCC)sc2c1CCNC2 [34a, (9Z,12Z)-octadeca-9,12-dien-1-yl 2-stearamido-4,5,6,7-tetrahydrothieno[2,3-c]pyridine-3-carboxylate] |  |  | successful transfection | liver and spleen |  |  |  | favorable transfection profile and cytotoxicity |  |  | highest light flux | 
CCCCC/C=C\C/C=C\CCCCCCCCOC(=O)c1c(NC(=O)CCCCCCC/C=C\C/C=C\CCCCC)sc2c1CCNC2 [34b, (9Z,12Z)-octadeca-9,12-dien-1-yl 2-((9Z,12Z)-octadeca-9,12-dienamido)-4,5,6,7-tetrahydrothieno[2,3-c]pyridine-3-carboxylate] |  |  | successful transfection |  |  |  |  | favorable transfection profile and cytotoxicity |  |  | highest light flux | 
CCCCC/C=C\C/C=C\CCCCCCCCOC(=O)c1c(NC(=O)CCCCCCC/C=C\C/C=C\CCCCC)sc2c1CCN(C(=O)CCCN(C)C)C2 [35a, (9Z,12Z)-octadeca-9,12-dien-1-yl 6-(4-(dimethylamino)butanoyl)-2-((9Z,12Z)-octadeca-9,12-dienamido)-4,5,6,7-tetrahydrothieno[2,3-c]pyridine-3-carboxylate] |  |  | successful transfection |  |  |  |  | favorable transfection profile and cytotoxicity |  |  |  | up to 4 ×fold
